Here are results for two compounds from patent US12291508B2, “Hydrazide containing nuclear transport modulators and uses thereof” (Karyopharm Therapeutics Inc., priority 2011, dated 2025).

For data set [1], the target named is T1, CRM1-mediated nuclear export (Homo sapiens, UniProt O14980).
T1 construct: endogenous in cells; host or cells: U2OS-RevGFP cells
Nature of the data set: RevGFP assay, inhibition of nuclear export. In kind it is cell-based. Conditions: U2OS-RevGFP cells, about 1 hr incubation; read-out: Rev Export. The protocol:
The ability of exemplary compounds of the invention to inhibit CRM1-mediated nuclear export was assessed in a RevGFP assay. Rev is a protein from human immunodeficiency virus type 1 (HIV-1) and contains a nuclear export signal (NES) in its C-terminal domain and a nuclear localization signal (NLS) in its N-terminal domain. Nuclear export of Rev protein is dependent on the classical NES/CRM1 pathway (Neville et al. 1997).
In this assay, U2OS-RevGFP cells were seeded onto clear-bottomed, black, 384-well plates the day before the experiment. Compounds were serially diluted 1:2 in DMEM, starting from 40 μM in a separate, 384-well plate, and then transferred onto the cells. The cells were incubated with compound for about 1 hr before fixation with 3.7% formaldehyde and nuclei staining with Hoechst 33258. The amount of GFP in cell nuclei was measured and the IC50 of each compound was determined (Kau et al. 2003).

Data set [2] can be described thus: Brain to Plasma (B:P) ratio in mice. In kind it is in vivo. The following applies: mouse, brain/plasma, 10 mg/kg po, 2 hours post-dose. The protocol:
Brain to Plasma (B:P) Ratio. […] Following collection, brain tissue was rinsed with cold saline, dried on filter paper, weighed and snap-frozen by placing on dry ice. All samples were stored frozen at approximately −80° C. until analysis. […] Plasma samples were treated with the identical method (except homogenization step) and the concentration of compound in each matrix was calculated based on generated standard curves.

The test system of data set [3] is MM.1S multiple myeloma cell line. The data set is described as follows: CellTiter 96 AQueous One Solution cell proliferation assay, MM.1S. The following applies: Homo sapiens, MM1.S, 72 h of treatment, read-out: Cytotoxicity Assay. The class given is cell-based. The text has this: The CellTiter 96® AQueous One Solution cell proliferation assay (Promega) was used on MM.1S multiple myeloma cell line to study the cytotoxic and cytostatic properties of the compounds. The assay is based on the cleavage of the tetrazolium salt, MTS, in the presence of an electron-coupling reagent PES (phenazine ethosulfate). The MTS tetrazolium compound is bioreduced by cells into a colored formazan product that is soluble in tissue culture medium. This conversion is presumably accomplished by NADPH or NADH produced by dehydrogenase enzymes in metabolically active cells. Assays are performed by adding a small amount of the CellTiter 96® AQueous One solution reagent directly to culture wells, incubating for 1-4 hours and then recording the absorbance at 490 nm with a 96-well plate reader.
The cells were seeded at 5×10^3 to 1.5×10^4 cells in each well of a 96-well plate in 100 μL of fresh culture medium and adherent cells were allowed to attach overnight. The stock solutions of the compounds were diluted in cell culture medium to obtain eight concentrations of each drug, ranging from 1 nM to 30 μM and DMSO at less than 1% v/v was used as a negative control. The resulting drug solutions were transferred onto the cells. After 72 h of treatment, 20 μl of CellTiter 96® AQueous reagent was added into each well of the 96-well assay plates and the plate was incubated at 37° C. for 1-4 hours in a humidified, 5% CO2 atmosphere. Then the absorbance of each well was recorded at 490 nm using a 96-well plate reader. In most cases, the assay was performed in triplicate and the results were presented as half maximal inhibitory concentration (IC50). Optical density versus compound concentration was plotted and analyzed using non-linear regression equations (IDBS XLfit) and the IC50 for each compound was calculated.

Data set [4] is described as follows: Pharmacokinetic (PK) assay, plasma AUC in mice. The class given is in vivo. Conditions: mouse, plasma, 10 mg/kg po. As for the experimental part:
AUC. Blood was collected from mice (N=3) to contribute to the total of 10 time points (pre-dose, 5 min, 15 min, 30 min, 1 hour, 2 hours, 4 hours, 8 hours, 12 hours and 24 hours post dose). Mice were bled on a rotating basis, each mouse contributing 3 time points to the blood collection. At the designated time points, animals were anaesthetized under isoflurane, and approximately 110 μL of blood per time point was collected via retro-orbital puncture into pre-cooled K2EDTA (anti-coagulant) tubes. Blood samples were put on wet ice and centrifuged (2000 g, 5 min at 4° C.) to obtain plasma within 30 minutes of sample collection. All samples were stored frozen at approximately −80° C. until analysis. Prior to analysis, samples were mixed with internal standard (dexamethasone) in acetonitrile, vortexed, centrifuged, and supernatant was injected for analysis. Concentration of compounds in plasma was determined using LC-MS-MS instrumentation (API 4000, Triple Quadruple with electrospray ionization; Acuity Ultra Performance Liquid Chromatography column C18, with MeOH and formic acid as organic solvents). AUC values were calculated using WinNonlin Professional 6.2 software package, non-compartmental pharmacokinetic model NCA200.

T1 sequence (O14980 whole entry): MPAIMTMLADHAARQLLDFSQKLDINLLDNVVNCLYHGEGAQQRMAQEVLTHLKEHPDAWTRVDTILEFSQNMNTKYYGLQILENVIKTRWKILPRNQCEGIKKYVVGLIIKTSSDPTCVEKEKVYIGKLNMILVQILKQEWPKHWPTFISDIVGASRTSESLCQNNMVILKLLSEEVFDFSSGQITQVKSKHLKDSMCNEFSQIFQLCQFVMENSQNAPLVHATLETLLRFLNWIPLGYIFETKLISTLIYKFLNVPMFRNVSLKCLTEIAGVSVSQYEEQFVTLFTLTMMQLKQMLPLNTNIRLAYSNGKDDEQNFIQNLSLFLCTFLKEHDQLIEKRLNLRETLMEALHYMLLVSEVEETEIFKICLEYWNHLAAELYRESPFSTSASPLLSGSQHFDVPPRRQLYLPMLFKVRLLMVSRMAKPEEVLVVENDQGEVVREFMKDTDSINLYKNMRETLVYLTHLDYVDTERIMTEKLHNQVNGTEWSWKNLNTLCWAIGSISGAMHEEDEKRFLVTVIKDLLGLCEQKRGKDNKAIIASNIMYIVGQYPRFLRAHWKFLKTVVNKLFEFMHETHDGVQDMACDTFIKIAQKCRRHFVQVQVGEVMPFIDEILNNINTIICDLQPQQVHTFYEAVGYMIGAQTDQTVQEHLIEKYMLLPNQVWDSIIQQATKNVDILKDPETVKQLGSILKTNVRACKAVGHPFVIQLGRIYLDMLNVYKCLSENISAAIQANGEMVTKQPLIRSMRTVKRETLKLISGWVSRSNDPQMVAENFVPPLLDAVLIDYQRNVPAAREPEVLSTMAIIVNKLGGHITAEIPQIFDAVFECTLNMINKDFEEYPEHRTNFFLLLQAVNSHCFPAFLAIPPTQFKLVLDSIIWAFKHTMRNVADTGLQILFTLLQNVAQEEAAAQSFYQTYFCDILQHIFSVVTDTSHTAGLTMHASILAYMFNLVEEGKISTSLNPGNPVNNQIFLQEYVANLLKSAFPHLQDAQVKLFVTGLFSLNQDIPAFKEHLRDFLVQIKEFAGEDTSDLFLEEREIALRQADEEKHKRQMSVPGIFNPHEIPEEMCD

Take `O=C(/C=C\n1cnc(-c2cc(C(F)(F)F)cc(C(F)(F)F)c2)n1)NNc1cc(Cl)ncn1` [Compound I-12, (Z)-3-(3-(3,5-bis(trifluoromethyl)phenyl)-1H-1,2,4-triazol-1-yl)-N′-(6-chloropyrimidin-4-yl)acrylohydrazide]: the IC50 in data set [1] and in data set [3] was no more than 1 µM each time. In addition, in data set [2], the Kp at 2 h was determined as 0.13. Further, the AUC(0-inf) in data set [4] came to 24.9 µg·h/mL.
As for `CN(NC(=O)/C=C\n1cnc(-c2cc(C(F)(F)F)cc(C(F)(F)F)c2)n1)c1ccccn1` [Compound I-7, (Z)-3-(3-(3,5-bis(trifluoromethyl)phenyl)-1H-1,2,4-triazol-1-yl)-N‘-methyl-N’-(pyridin-2-yl)acrylohydrazide], the IC50 in data set [1] and in data set [3] was no more than 1 µM in each case. For the same compound, in data set [2], the Kp at 2 h was 1.5. Also, the AUC(0-inf) in data set [4] was 12.2 µg·h/mL.
